For one test, the system named is NCIH460. As to the kind of experiment: Anti-cancer screen (MTT), NCIH460. Type of test: cell-based. Conditions: Homo sapiens, NCI-H460, 48 hours with compound, tested at 0.01-100 µM. The gist of the method:
(§1)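 Growth inhibition is measured by MTT reduction after 48 h treatment of cells grown in DMEM with 10% fetal bovine serum. Percent growth uses T0 viability, measured just before dosing, so that net cell kill yields negative values and an LC50.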

The next test concerns HCT116. As to the kind of experiment: Anti-cancer screen (MTT), HCT116. Type of test: cell-based. Conditions: Homo sapiens, HCT-116, 48 hours with compound, tested at 0.01-100 µM. The gist of the method: as §1
For a further test, the system named is MDAMB-231/U 251. Kind of test: Anti-cancer screen (MTT), MDAMB-231/U 251. Type of test: cell-based. The note with it: for CC50: read-out: MDAMB-231/U 251 LC50. The gist of the method: as §1
The test system of test [1] is NCIH460, HCT116, MDAMB-231/U 251. Kind of test: Anti-cancer screen, mean GI50 over the cell lines. Type of test: cell-based. Conditions: in µM. The gist of the method: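 HCT116, NCIH460 and U251 cells (5000/well) were seeded for 24 h, then exposed in triplicate to 0.01, 0.1, 1, 10 and 100 µM final compound for 48 h. Viability was read by MTT (3 h, absorbance 570 nm), and percent growth was calculated against untreated controls and a T0 plate read at compound addition.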

The next test has as its system HDAC. As to the kind of experiment: HDAC inhibition. Type of test: biochemical. The note with it: for HDAC Inhibition 1 μM: compound at 1 μM; for HDAC Inhibition 10 μM: compound at 10 μM.
Where [2] appears, read: 48 hours with compound, MTT, tested at 0.01-100 µM.

Twelve compounds from patent publication US20100152188A1, “Novel Heterocyclic Compounds” (priority 2005, published 2010) can be followed below.

Each structure is given as a SMILES string. Where two headings read alike, the source gives them in different places.

As usually defined, the GI50 is the concentration that inhibits growth by half. As a reminder, the LC50 is the concentration lethal to half of the exposed cells or organisms. For `O=C(NCc1ccc(C(=O)Nc2nnc(C(F)(F)F)s2)cc1)OCc1nccs1` [Example 64, 1,3-Thiazol-2-ylmethyl[4-({[5-(trifluoromethyl)-1,3,4-thiadiazol-2-yl]amino}carbonyl)benzyl]carbamate], in the test on NCIH460, the GI50 is over 100 µM, the IC (TGI) was over 100 µM and the LC50 is over 100 µM. Further, in the test on HCT116, the GI50 is over 100 µM, the IC (TGI) is over 100 µM and the LC50 (concentration giving 50% net cell kill relative to T0) was over 100 µM. Also, in the test on MDAMB-231/U 251 (48 h), the CC50 is over 100 µM. In the test with MDAMB-231/U 251 (setting [2]), the GI50 was over 100 µM and the IC (TGI) was over 100 µM. The “Mean GI50” value in test [1] was over 100. Also, in the test on HDAC, the “HDAC Inhibition 1 μM” value amounted to 4.95 and the “HDAC Inhibition 10 μM” value was 7.43.

Turning to `O=C(NCc1ccc(C(=O)Nc2nnc(C3CC3)s2)cc1)OCc1nccs1` [Example 65, 1,3-Thiazol-2-ylmethyl(4-{[(5-cyclopropyl-1,3,4-thiadiazol-2-yl)amino]carbonyl}benzyl)carbamate], in the test on NCIH460, the GI50 is 12 µM, the IC (TGI) was found to be 85 µM and the LC50 was over 100 µM. For the same compound, in the test with HCT116, the 50% growth inhibitory concentration (GI50) worked out at 36 µM, the IC (TGI) was over 100 µM and the LC50 (concentration giving 50% net cell kill relative to T0) is over 100 µM. In addition, in the test on MDAMB-231/U 251 (48 h), the CC50 was over 100 µM. Besides, in the test on MDAMB-231/U 251 (setting [2]), the GI50 came to 5 µM and the IC (TGI) turned out to be 45 µM. In test [1], the “Mean GI50” value is 17.67. In addition, in the test with HDAC, the “HDAC Inhibition 1 μM” value is on record as 11.65 and the “HDAC Inhibition 10 μM” value came to 8.84.

Take `O=C(NCc1ccc(C(=O)N2CCN(Cc3ccc4c(c3)OCO4)CC2)cc1)OCc1nc2ccccc2s1` [Example 66, 1,3-Benzothiazol-2-ylmethyl(4-{[4-(1,3-benzodioxol-5-ylmethyl)piperazin-1-yl]carbonyl}benzyl)carbamate]: in the test with NCIH460, the GI50 turned out to be 1 µM, the IC (TGI) was over 100 µM and the LC50 is over 100 µM. In addition, in the test with HCT116, the GI50 came out at 4.8 µM, the IC (TGI) was over 100 µM and the LC50 (concentration giving 50% net cell kill relative to T0) is over 100 µM. Moreover, in the test with MDAMB-231/U 251 (48 h), the CC50 was over 100 µM. Further, in the test with MDAMB-231/U 251 (setting [2]), the GI50 is 6 µM and the IC (TGI) was over 100 µM. In addition, the “Mean GI50” value in test [1] came to 3.93. Besides, in the test with HDAC, the “HDAC Inhibition 1 μM” value stood at 8.57 and the “HDAC Inhibition 10 μM” value is listed as 12.98.

Turning to `O=C(NCc1ccc(C(=O)Nc2nnc(C3CC3)s2)cc1)OCc1nc2ccccc2s1` [Example 67, 1,3-Benzothiazol-2-ylmethyl(4-{[(5-cyclopropyl-1,3,4-thiadiazol-2-yl)amino]carbonyl}benzyl)carbamate], in the test with NCIH460, the GI50 was 3.5 µM, the IC (TGI) turned out to be 9.5 µM and the LC50 is over 100 µM. In the test on HCT116, the GI50 was 1.8 µM, the IC (TGI) was 67 µM and the LC50 (concentration giving 50% net cell kill relative to T0) was over 100 µM. In addition, in the test on MDAMB-231/U 251 (48 h), the CC50 is over 100 µM. In the test with MDAMB-231/U 251 (setting [2]), the GI50 turned out to be 3.5 µM and the IC (TGI) came out at 9 µM. Besides, the “Mean GI50” value in test [1] is recorded as 2.93. Besides, in the test on HDAC, the “HDAC Inhibition 1 μM” value stood at 12.17 and the “HDAC Inhibition 10 μM” value was found to be 11.64.

Take `O=C(NCc1ccc(C(=O)N2CCN(c3ncccn3)CC2)cc1)OCc1nccs1` [Example 68, 1,3-thiazol-2-ylmethyl{4-[(4-pyrimidin-2-ylpiperazin-1-yl)carbonyl]benzyl}carbamate]: in the test on NCIH460, the GI50 is 33 µM, the IC (TGI) was over 100 µM and the LC50 is over 100 µM. For the same compound, in the test with HCT116, the concentration for 50% growth inhibition (GI50) was 9 µM, the IC (TGI) is over 100 µM and the LC50 (concentration giving 50% net cell kill relative to T0) was over 100 µM. Moreover, in the test on MDAMB-231/U 251 (48 h), the CC50 was over 100 µM. Moreover, in the test with MDAMB-231/U 251 (setting [2]), the GI50 was found to be 0.2 µM and the IC (TGI) amounted to 21 µM. In addition, the “Mean GI50” value in test [1] came to 14.1. Besides, in the test on HDAC, the “HDAC Inhibition 1 μM” value turned out to be 11.14 and the “HDAC Inhibition 10 μM” value is given as 5.80.

As for `O=C(Nc1ccc(C(=O)NO)o1)OCc1ccccc1` [Example 75, Benzyl{5-[(hydroxyamino)carbonyl]-2-furyl}carbamate], in the test on NCIH460, the GI50 stood at 100 µM, the IC (TGI) is over 100 µM and the LC50 was over 100 µM. Moreover, in the test on HCT116, the GI50 was over 100 µM, the IC (TGI) is over 100 µM and the LC50 (concentration giving 50% net cell kill relative to T0) was over 100 µM. In the test on MDAMB-231/U 251 (48 h), the CC50 was over 100 µM. Further, in the test on MDAMB-231/U 251 (setting [2]), the GI50 worked out at 9 µM and the IC (TGI) was 85 µM. Further, in test [1], the “Mean GI50” value is reported as over 100. Also, the “HDAC Inhibition 10 μM” value in the test with HDAC is 6.61.

Regarding `O=C(Nc1ccc(C(=O)NO)cc1)OCC1c2ccccc2-c2ccccc21` [Example 76], in the test on NCIH460, the GI50 stood at 10 µM, the IC (TGI) was 82 µM and the LC50 is over 100 µM. Moreover, in the test with HCT116, the GI50 worked out at 7.5 µM, the IC (TGI) worked out at 65 µM and the LC50 (concentration giving 50% net cell kill relative to T0) was over 100 µM. The CC50 with MDAMB-231/U 251 (48 h) came out at 90 µM. In the test on MDAMB-231/U 251 (setting [2]), the GI50 worked out at 3 µM and the IC (TGI) is 9 µM. Moreover, the “Mean GI50” value in test [1] is 6.8. Moreover, in the test on HDAC, the “HDAC Inhibition 1 μM” value is recorded as 50.50 and the “HDAC Inhibition 10 μM” value is 75.80.

As to `CC(=O)N(O)C(=O)Cc1csc(NC(=O)OCc2ccsc2)n1` [Example 77, 3-thienylmethyl(4-{2-[acetyl(hydroxy)amino]-2-oxoethyl}-1,3-thiazol-2-yl)carbamate], in the test with NCIH460, the GI50 came to 53 µM, the IC (TGI) was over 100 µM and the LC50 is over 100 µM. Further, in the test on HCT116, the GI50 was found to be 60 µM, the IC (TGI) is over 100 µM and the LC50 (concentration giving 50% net cell kill relative to T0) is over 100 µM. Also, the CC50 in the test with MDAMB-231/U 251 (48 h) was over 100 µM. Besides, in the test with MDAMB-231/U 251 (setting [2]), the GI50 worked out at 6 µM and the IC (TGI) came out at 65 µM. The “Mean GI50” value in test [1] was determined as 39.7. In the test with HDAC, the “HDAC Inhibition 1 μM” value is listed as 7.7 and the “HDAC Inhibition 10 μM” value is 14.8.

Turning to `CC(=O)N(O)C(=O)Cc1csc(NC(=O)OCc2ccc(Br)s2)n1` [Example 78, (5-bromo-2-thienyl)methyl(4-{2-[acetyl(hydroxy)amino]-2-oxoethyl}-1,3-thiazol-2-yl)carbamate], in the test on NCIH460, the GI50 was 6.5 µM, the IC (TGI) worked out at 45 µM and the LC50 is over 100 µM. Further, in the test with HCT116, the GI50 came to 30 µM and the IC (TGI) came to 80 µM. In the test with HCT116 (read-out: HCT116 LC50), the CC50 is over 100 µM. In addition, in the test on MDAMB-231/U 251 (setting [2]), the GI50 was found to be 20 µM, the IC (TGI) worked out at 75 µM and the CC50 was over 100 µM. The “Mean GI50” value in test [1] is recorded as 18.8. For the same compound, in the test on HDAC, the “HDAC Inhibition 1 μM” value came to 3.61 and the “HDAC Inhibition 10 μM” value worked out at 35.88.

As to `CC(=O)N(O)C(=O)Cc1csc(NC(=O)OCc2cccs2)n1` [Example 80, 2-Thienylmethyl(4-{2-[acetyl(hydroxy)amino]-2-oxoethyl}-1,3-thiazol-2-yl)carbamate], in the test with NCIH460, the GI50 is 53 µM, the IC (TGI) was over 100 µM and the LC50 was over 100 µM. Moreover, in the test on HCT116, the GI50 is over 100 µM, the IC (TGI) was over 100 µM and the LC50 (concentration giving 50% net cell kill relative to T0) was over 100 µM. The CC50 in the test with MDAMB-231/U 251 (48 h) was over 100 µM. Further, in the test with MDAMB-231/U 251 (setting [2]), the GI50 came to 35 µM and the IC (TGI) is 96 µM. Moreover, the “Mean GI50” value in test [1] was over 100. For the same compound, the “HDAC Inhibition 10 μM” value with HDAC turned out to be 5.28.

For the compound `CC(=O)ONC(=O)c1ccc(CNC(=O)OCc2cccs2)cc1` [Example 82, 2-Thienylmethyl(4-{[(acetyloxy)amino]carbonyl}benzyl)carbamate], in the test on NCIH460, the GI50 worked out at 24 µM, the IC (TGI) worked out at 62 µM and the LC50 is over 100 µM. For the same compound, in the test on HCT116, the GI50 came out at 7 µM, the IC (TGI) stood at 41 µM and the LC50 (concentration giving 50% net cell kill relative to T0) turned out to be 78 µM. The CC50 in the test with MDAMB-231/U 251 (48 h) is over 100 µM. In addition, in the test with MDAMB-231/U 251 (setting [2]), the GI50 stood at 28 µM and the IC (TGI) stood at 52 µM. Also, the “Mean GI50” value in test [1] is given as 19.66. Further, in the test with HDAC, the “HDAC Inhibition 1 μM” value amounted to 48.96 and the “HDAC Inhibition 10 μM” value worked out at 86.12.

In the case of `CC(=O)ONC(=O)c1ccc(CNC(=O)OCc2nccs2)cc1` [Example 83, 1,3-thiazol-2-ylmethyl(4-{[(acetyloxy)amino]carbonyl}benzyl)carbamate], in the test with NCIH460, the GI50 turned out to be 30 µM, the IC (TGI) is 60 µM and the LC50 was 90 µM. Besides, in the test with HCT116, the 50% growth inhibitory concentration (GI50) is 10 µM, the IC (TGI) amounted to 56 µM and the LC50 (concentration giving 50% net cell kill relative to T0) was found to be 84 µM. Besides, the CC50 in the test with MDAMB-231/U 251 (48 h) is over 100 µM. Moreover, in the test with MDAMB-231/U 251 (setting [2]), the GI50 worked out at 9 µM and the IC (TGI) was found to be 66 µM. Moreover, the “Mean GI50” value in test [1] is on record as 16.33. For the same compound, in the test with HDAC, the “HDAC Inhibition 1 μM” value is on record as 22.38 and the “HDAC Inhibition 10 μM” value is reported as 63.89.
